From patent US12516056B2, “Compounds for inhibition of janus kinase 1” (MANKIND PHARMA LTD., priority 2019, dated 2026)

Key:
Recombinant JAK1 = target: T1, Recombinant JAK1 (Homo sapiens, UniProt P23458); test: JAK biochemical assay (LANCE Ultra TR-FRET), JAK1; details: recombinant JAK1, TR-FRET; read-out: Biochemical Assay (μM) JAK1
T1 construct: purchased Carna Biosciences
Method: (§1) Recombinant JAK1, JAK2, JAK3 and TYK2 (Carna Biosciences) were used to develop biochemical assays in 50 mM HEPES pH 7.5, 1 mM EGTA, 10 mM MgCl2, 2 mM DTT and 0.01% Tween-20. […] The intensity of the light emission is proportional to the level of ULight substrate phosphorylation. Compounds which interfere with JAK enzyme activity show a lesser substrate phosphorylation and values are projected in terms of % inhibition in comparison to vehicle control.

Recombinant JAK2 = target: T2, Recombinant JAK2 (Homo sapiens, UniProt O60674); test: JAK biochemical assay (LANCE Ultra TR-FRET), JAK2; details: recombinant JAK2, TR-FRET; read-out: Biochemical Assay (μM) JAK2
T2 construct: purchased Carna Biosciences
T2 sequence (O60674 whole entry): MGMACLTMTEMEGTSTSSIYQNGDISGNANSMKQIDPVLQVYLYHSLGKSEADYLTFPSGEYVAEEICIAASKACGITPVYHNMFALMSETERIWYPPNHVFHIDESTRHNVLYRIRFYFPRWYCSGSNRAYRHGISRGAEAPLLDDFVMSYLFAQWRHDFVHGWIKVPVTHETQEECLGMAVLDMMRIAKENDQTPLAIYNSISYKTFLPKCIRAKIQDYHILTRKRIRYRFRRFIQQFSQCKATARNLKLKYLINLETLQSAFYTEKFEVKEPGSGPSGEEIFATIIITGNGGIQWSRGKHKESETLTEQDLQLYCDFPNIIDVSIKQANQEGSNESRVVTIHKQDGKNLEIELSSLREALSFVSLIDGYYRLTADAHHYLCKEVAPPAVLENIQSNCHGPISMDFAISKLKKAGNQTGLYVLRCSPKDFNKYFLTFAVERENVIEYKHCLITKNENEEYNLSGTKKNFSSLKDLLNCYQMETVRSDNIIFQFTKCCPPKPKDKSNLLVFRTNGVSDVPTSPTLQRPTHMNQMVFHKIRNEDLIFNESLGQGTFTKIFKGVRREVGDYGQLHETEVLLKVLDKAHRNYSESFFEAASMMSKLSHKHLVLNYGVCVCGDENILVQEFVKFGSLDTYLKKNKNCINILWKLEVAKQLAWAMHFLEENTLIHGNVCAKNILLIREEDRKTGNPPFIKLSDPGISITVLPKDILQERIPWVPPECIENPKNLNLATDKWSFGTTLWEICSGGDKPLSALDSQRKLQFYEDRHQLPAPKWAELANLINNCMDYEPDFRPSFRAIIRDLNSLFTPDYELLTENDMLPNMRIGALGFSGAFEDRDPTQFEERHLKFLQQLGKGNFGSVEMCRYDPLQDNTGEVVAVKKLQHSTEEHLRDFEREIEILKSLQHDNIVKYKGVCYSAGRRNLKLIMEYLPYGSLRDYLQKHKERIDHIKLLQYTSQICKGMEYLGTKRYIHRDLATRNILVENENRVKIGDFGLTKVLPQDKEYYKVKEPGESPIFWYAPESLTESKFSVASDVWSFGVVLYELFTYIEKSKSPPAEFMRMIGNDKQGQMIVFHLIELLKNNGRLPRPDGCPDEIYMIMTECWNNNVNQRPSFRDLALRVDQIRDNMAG
Method: as §1

Recombinant JAK3 = target: T3, Recombinant JAK3 (Homo sapiens, UniProt P52333); test: JAK biochemical assay (LANCE Ultra TR-FRET), JAK3; details: recombinant JAK3, TR-FRET; read-out: Biochemical Assay (μM) JAK3
T3 construct: purchased Carna Biosciences
T3 sequence (P52333 1-1124): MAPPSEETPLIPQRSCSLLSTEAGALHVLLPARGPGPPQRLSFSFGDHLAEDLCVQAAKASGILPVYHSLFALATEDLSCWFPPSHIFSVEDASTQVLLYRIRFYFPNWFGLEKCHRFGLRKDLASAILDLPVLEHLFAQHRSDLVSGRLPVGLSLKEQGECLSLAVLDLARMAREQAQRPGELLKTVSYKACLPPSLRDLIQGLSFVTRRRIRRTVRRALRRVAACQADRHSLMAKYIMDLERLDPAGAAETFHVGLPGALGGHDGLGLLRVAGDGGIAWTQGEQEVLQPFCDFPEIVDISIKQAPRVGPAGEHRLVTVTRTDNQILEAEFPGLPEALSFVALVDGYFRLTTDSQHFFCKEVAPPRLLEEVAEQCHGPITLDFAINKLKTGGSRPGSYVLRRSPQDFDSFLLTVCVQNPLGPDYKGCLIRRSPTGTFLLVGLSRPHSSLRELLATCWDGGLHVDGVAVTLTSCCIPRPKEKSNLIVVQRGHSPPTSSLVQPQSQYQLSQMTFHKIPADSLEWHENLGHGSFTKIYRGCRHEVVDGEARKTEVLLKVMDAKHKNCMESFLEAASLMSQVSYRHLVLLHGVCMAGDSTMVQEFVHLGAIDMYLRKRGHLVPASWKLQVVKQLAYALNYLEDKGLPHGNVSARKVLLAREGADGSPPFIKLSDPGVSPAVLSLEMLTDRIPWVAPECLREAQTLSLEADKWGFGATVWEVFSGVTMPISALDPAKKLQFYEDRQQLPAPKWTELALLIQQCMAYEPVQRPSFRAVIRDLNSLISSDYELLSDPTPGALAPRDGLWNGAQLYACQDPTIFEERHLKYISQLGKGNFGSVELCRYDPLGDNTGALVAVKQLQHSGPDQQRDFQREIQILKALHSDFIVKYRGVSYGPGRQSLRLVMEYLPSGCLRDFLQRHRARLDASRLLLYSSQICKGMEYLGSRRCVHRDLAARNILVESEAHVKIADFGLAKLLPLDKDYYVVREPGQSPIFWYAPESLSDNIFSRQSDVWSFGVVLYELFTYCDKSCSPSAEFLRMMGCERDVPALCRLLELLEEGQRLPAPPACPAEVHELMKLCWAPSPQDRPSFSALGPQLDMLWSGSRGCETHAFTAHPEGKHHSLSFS
Method: as §1

Recombinant TYK2 = target: T4, Recombinant TYK2 (Homo sapiens, UniProt P29597); test: JAK biochemical assay (LANCE Ultra TR-FRET), TYK2; details: recombinant TYK2, TR-FRET; read-out: Biochemical Assay (μM) TYK2
T4 construct: purchased Carna Biosciences
T4 sequence (P29597 whole entry): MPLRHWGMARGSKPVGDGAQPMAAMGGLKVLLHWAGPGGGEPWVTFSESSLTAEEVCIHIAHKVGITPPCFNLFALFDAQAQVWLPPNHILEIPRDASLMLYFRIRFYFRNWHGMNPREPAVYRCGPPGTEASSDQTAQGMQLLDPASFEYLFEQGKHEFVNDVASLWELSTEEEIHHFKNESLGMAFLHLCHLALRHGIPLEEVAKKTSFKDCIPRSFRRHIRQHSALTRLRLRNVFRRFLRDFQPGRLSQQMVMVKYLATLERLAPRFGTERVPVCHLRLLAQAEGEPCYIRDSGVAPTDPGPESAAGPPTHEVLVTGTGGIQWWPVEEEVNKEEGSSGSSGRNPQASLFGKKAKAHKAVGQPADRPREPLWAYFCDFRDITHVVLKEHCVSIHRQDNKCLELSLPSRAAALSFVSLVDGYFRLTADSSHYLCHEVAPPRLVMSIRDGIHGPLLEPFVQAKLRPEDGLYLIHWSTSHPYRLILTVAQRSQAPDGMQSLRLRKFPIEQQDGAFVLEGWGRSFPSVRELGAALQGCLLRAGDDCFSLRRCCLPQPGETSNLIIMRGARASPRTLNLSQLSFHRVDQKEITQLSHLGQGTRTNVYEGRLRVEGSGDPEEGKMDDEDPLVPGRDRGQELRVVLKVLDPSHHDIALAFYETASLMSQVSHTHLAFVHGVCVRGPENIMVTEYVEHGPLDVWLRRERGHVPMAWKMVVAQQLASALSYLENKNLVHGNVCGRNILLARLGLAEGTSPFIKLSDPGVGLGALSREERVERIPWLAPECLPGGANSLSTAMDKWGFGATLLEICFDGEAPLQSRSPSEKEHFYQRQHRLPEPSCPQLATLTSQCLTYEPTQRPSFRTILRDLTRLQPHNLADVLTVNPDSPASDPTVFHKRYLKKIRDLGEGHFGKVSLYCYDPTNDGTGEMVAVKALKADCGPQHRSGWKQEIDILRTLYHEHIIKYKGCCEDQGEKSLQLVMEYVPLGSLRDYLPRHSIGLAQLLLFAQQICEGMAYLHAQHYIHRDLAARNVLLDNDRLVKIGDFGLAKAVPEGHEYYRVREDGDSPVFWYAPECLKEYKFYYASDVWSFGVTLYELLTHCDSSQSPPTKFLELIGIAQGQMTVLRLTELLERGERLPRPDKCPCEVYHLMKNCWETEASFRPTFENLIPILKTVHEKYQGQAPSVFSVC
Method: as §1

T1 sequence (P23458 whole entry): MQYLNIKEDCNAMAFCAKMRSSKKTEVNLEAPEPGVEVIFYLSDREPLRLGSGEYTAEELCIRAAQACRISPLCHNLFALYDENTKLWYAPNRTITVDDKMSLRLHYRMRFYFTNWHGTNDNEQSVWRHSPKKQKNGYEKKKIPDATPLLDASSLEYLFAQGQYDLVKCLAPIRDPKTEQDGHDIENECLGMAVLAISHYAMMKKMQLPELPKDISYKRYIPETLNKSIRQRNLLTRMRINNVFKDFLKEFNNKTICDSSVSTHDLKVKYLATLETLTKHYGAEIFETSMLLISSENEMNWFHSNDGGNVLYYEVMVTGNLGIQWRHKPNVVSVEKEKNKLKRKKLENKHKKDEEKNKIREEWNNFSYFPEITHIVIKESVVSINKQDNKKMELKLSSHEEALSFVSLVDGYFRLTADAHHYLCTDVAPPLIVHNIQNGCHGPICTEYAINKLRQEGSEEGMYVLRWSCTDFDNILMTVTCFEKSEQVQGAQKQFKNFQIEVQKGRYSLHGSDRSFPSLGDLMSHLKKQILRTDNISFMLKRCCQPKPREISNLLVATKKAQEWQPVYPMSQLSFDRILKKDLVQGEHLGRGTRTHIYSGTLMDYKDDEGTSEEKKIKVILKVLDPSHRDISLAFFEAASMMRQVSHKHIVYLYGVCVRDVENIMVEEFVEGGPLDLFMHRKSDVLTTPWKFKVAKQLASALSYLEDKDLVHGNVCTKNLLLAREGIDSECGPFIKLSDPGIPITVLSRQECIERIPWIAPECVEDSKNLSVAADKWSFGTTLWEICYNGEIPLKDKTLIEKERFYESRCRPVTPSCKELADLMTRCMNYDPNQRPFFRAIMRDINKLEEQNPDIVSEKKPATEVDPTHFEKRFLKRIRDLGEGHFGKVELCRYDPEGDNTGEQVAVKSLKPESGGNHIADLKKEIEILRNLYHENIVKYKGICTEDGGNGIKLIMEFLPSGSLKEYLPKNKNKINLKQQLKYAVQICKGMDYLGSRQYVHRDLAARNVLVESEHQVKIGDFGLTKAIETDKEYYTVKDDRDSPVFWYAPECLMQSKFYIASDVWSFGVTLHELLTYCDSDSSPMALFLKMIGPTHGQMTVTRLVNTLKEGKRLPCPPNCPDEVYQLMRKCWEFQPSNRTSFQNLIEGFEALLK

Row | IC50 (Recombinant JAK1) [µM] | IC50 (Recombinant JAK2) [µM] | IC50 (Recombinant JAK3) [µM] | IC50 (Recombinant TYK2) [µM] | SMILES
1 | > 10 | > 10 | > 10 | > 10 | CS(=O)(=O)N1CCC(NC(=O)N2CCN(c3ccnc4[nH]c(=O)[nH]c34)CC2)CC1 [Example 1016, N-(1-(methylsulfonyl)piperidin-4-yl)-4-(2-oxo-2,3-dihydro-1H-imidazo[4,5-b]pyridin-7-yl)piperazine-1-carboxamide]
2 | > 1 | > 1 | > 10 | > 10 | O=C(NCC1CCCC1)N1CCN(c2ccnc3[nH]c(=O)[nH]c23)CC1 [Example 1017, N-(cyclopentylmethyl)-4-(2,3-dihydro-2-oxo-1H-imidazo[4,5-b]pyridin-7-yl)piperazine-1-carboxamide]
3 | > 10 | > 10 | > 10 | > 10 | O=C(N1CCN(c2ccnc3[nH]c(=O)[nH]c23)CC1)N1CCS(=O)(=O)CC1 [Example 1018, 7-(4-(1,1-dioxidothiomorpholine-4-carbonyl)piperazin-1-yl)-1,3-dihydro-2H-imidazo[4,5-b]pyridin-2-one]
4 |  | > 1 | > 1 | > 1 | COc1cc(NC(=O)N2CCN(c3ccnc4[nH]c(=O)[nH]c34)CC2)ccn1 [Example 1019, 4-(2,3-dihydro-2-oxo-1H-imidazo[4,5-b]pyridin-7-yl)-N-(2-methoxypyridin-4-yl)piperazine-1-carboxamide]
5 | > 10 | > 10 | > 10 | > 10 | O=C(NC1CCS(=O)(=O)CC1)N1CCN(c2ccnc3[nH]c(=O)[nH]c23)CC1 [Example 1020, N-(1,1-dioxidotetrahydro-2H-thiopyran-4-yl)-4-(2-oxo-2,3-dihydro-1H-imidazo[4,5-b]pyridin-7-yl)piperazine-1-carboxamide]
6 |  | > 1 | > 1 | > 1 | CC(NC(=O)N1CCN(c2ccnc3[nH]c(=O)[nH]c23)CC1)C(F)(F)F (stereo not drawn) [Example 1021, N-(1,1,1-trifluoropropan-2-yl)-4-(2,3-dihydro-2-oxo-1H-imidazo[4,5-b]pyridin-7-yl)piperazine-1-carboxamide]
7 | > 10 | > 10 | > 10 | > 10 | CC1(C)CN(C(=O)N2CCN(c3ccnc4[nH]c(=O)[nH]c34)CC2)C1 [Example 1023, 7-(4-(3,3-dimethylazetidine-1-carbonyl)piperazin-1-yl)-1,3-dihydro-2H-imidazo[4,5-b]pyridin-2-one]
8 |  |  | > 1 | > 1 | CC(C)(C#N)NC(=O)n1cc(-c2ccnc3[nH]c(=O)[nH]c23)cn1 [Example 1033, N-(2-cyanopropan-2-yl)-4-(2,3-dihydro-2-oxo-1H-imidazo[4,5-b]pyridin-7-yl)-1H-pyrazole-1-carboxamide]
9 |  |  |  | > 1 | CCC(C)(C#N)NC(=O)n1cc(-c2ccnc3[nH]c(=O)[nH]c23)cn1 (stereo not drawn) [Example 1040, N-(2-cyanobutan-2-yl)-4-(2,3-dihydro-2-oxo-1H-imidazo[4,5-b]pyridin-7-yl)-1H-pyrazole-1-carboxamide]
10 |  | > 0.1 | > 0.1 | > 1 | CN(C)C(c1ccc(-n2cc(-c3ccnc4[nH]cnc34)cn2)nc1)C(F)(F)F (stereo not drawn) [Example 1121, 1-(6-(4-(3H-imidazo[4,5-b]pyridin-7-yl)-1H-pyrazol-1-yl)pyridin-3-yl)-2,2,2-trifluoro-N,N-dimethylethanamine]
11 |  | > 0.5 | > 0.1 | > 1 | OC(c1ccc(-n2cc(-c3ccnc4[nH]cnc34)cn2)nc1)(C1CCCC1)C(F)(F)F (stereo not drawn) [Example 1132, 1-(6-(4-(3H-imidazo[4,5-b]pyridin-7-yl)-1H-pyrazol-1-yl)pyridin-3-yl)-1-cyclopentyl-2,2,2-trifluoroethanol]
12 |  | > 0.5 | > 0.5 | > 1 | FC(F)(F)C(c1ccc(-n2cc(-c3ccnc4[nH]cnc34)cn2)nc1)N1CCOCC1 (stereo not drawn) [Example 1137, 7-(1-(5-(2,2,2-trifluoro-1-morpholinoethyl)pyridin-2-yl)-1H-pyrazol-4-yl)-3H-imidazo[4,5-b]pyridine]
13 |  |  | < 0.1 | > 1 | OC(c1ccnc(-n2cc(-c3ccnc4[nH]cnc34)cn2)c1)C(F)(F)F (stereo not drawn) [Example 1172, 1-(2-(4-(3H-imidazo[4,5-b]pyridin-7-yl)-1H-pyrazol-1-yl)pyridin-4-yl)-2,2,2-trifluoroethanol]

Further lines, the molecule ahead of its results:

Row | SMILES | IC50 (Recombinant JAK1) [µM] | IC50 (Recombinant JAK2) [µM] | IC50 (Recombinant JAK3) [µM] | IC50 (Recombinant TYK2) [µM]
14 | O=C(NCC(F)(F)F)c1ccc(-c2ccnc3[nH]c(=O)[nH]c23)cc1 [Example 1001, N-(2,2,2-trifluoroethyl)-4-(2,3-dihydro-2-oxo-1H-imidazo[4,5-b]pyridin-7-yl)benzamide] | > 10 | > 10 | > 10 | > 10
15 | O=C(NCC(F)(F)F)Nc1ncc(-c2ccnc3[nH]c(=O)[nH]c23)cn1 [Example 1004, 1-(2,2,2-trifluoroethyl)-3-(5-(2,3-dihydro-2-oxo-1H-imidazo[4,5-b]pyridin-7-yl)pyrimidin-2-yl)urea] | > 10 | > 10 | > 10 | > 10
16 | O=C(NCC(F)(F)F)Nc1cnc(-c2ccnc3[nH]c(=O)[nH]c23)cn1 [Example 1006, 1-(5-(2-oxo-2,3-dihydro-1H-imidazo[4,5-b]pyridin-7-yl)pyrazin-2-yl)-3-(2,2,2-trifluoroethyl)urea] |  |  |  | > 1
17 | O=C(Nc1ccc(-c2ccnc3[nH]c(=O)[nH]c23)cc1)N1CCOCC1 [Example 1008, N-(4-(2,3-dihydro-2-oxo-1H-imidazo[4,5-b]pyridin-7-yl)phenyl)morpholine-4-carboxamide] | > 1 | > 1 | > 1 | > 10
18 | O=C(Nc1ccncc1)Nc1ccc(-c2ccnc3[nH]c(=O)[nH]c23)cc1 [Example 1009, 1-(4-(2,3-dihydro-2-oxo-1H-imidazo[4,5-b]pyridin-7-yl)phenyl)-3-(pyridin-4-yl)urea] | > 10 | > 0.5 | > 1 | > 10
19 | O=C(NCC(F)(F)F)Nc1ccc(-c2ccnc3[nH]cnc23)cc1 [Example 1010, 1-(4-(3H-imidazo[4,5-b]pyridin-7-yl)phenyl)-3-(2,2,2-trifluoroethyl)urea] | < 0.5 | < 0.5 | > 0.5 | > 1
20 | N#CCNC(=O)N1CCN(c2ccnc3[nH]c(=O)[nH]c23)CC1 [Example 1012, N-(cyanomethyl)-4-(2,3-dihydro-2-oxo-1H-imidazo[4,5-b]pyridin-7-yl)piperazine-1-carboxamide] |  |  | > 1 | 
21 | CS(=O)(=O)CCNC(=O)N1CCN(c2ccnc3[nH]c(=O)[nH]c23)CC1 [Example 1013, 4-(2,3-dihydro-2-oxo-1H-imidazo[4,5-b]pyridin-7-yl)-N-(2-(methylsulfonyl)ethyl)piperazine-1-carboxamide] | > 10 | > 10 | > 10 | > 10
22 | O=C(Nc1ccnc(F)c1)N1CCN(c2ccnc3[nH]c(=O)[nH]c23)CC1 [Example 1015, N-(2-fluoropyridin-4-yl)-4-(2,3-dihydro-2-oxo-1H-imidazo[4,5-b]pyridin-7-yl)piperazine-1-carboxamide] |  | > 1 | > 1 | > 1
